Assay: Binding of stilbene derivatives to chitosan, dissociation constants by indirect difference spectroscopy
Settings: qualitative statement on binding affinity
From the text: Binding studies of stilbene derivatives to chitosan or MHEC

| binding to chitosan (in words) | SMILES |
| --- | --- |
| no significant improvement in binding | O=S(=O)(O)c1cc(Nc2nc(Nc3ccccc3)nc(N(CCO)CCO)n2)ccc1/C=C/c1ccc(Nc2nc(Nc3ccccc3)nc(N(CCO)CCO)n2)cc1S(=O)(=O)O [calcofluor white] |
| no significant improvement in binding | O=S(=O)(O)c1cc(Nc2nc(NCCO)nc(Nc3ccccc3)n2)ccc1C=Cc1ccc(Nc2nc(NCCO)nc(Nc3ccccc3)n2)cc1S(=O)(=O)O [OB85] |

| SMILES | binding to chitosan (in words) |
| --- | --- |
| Nc1ccc(C=Cc2ccc(N)cc2S(=O)(=O)O)c(S(=O)(=O)O)c1 [4,4′-diaminostilbene-2,2′-disulfonic acid] | neither the core structure itself nor its bis(dichlorotriazine) derivative (R^4a═R^6a═R^4b═R^6b═Cl) binds to chitosan |

Reference: patent US9539273B2, “Targeted delivery of anti-fungal agents” (EDH Biotech Corp, priority 2013, dated 2017)
